Laboratory results from ChEMBL document CHEMBL6134890, “Terminally Symmetric β-Turn Peptides for Multidrug-Resistant Bacterial Infections” (J Med Chem, 2025).
≈ marks a conversion by molar mass, not a printed value. Bridge positions count the residues as written; N and C are the ends. Square brackets hold non-standard residues; d marks the D form. Peptide text beside a SMILES is read from it. * marks the point of attachment. X1 = CC[C@H](C)CCCCC(=O)*; Dab = NCC[C@H](N)C(=O)O

Experiments:
[1] = tested on: L02; assay: Cytotoxicity against human LO2 cells at 2 to 256 uM measured after 24 hrs by CCK-8 method; assay type: toxicity, cell-based; conditions: l02, 24 h, dose 2-256 µM
[2] = tested on: BEAS-2B; assay: Cytotoxicity against human BEAS-2B cells at 2 to 256 uM measured after 24 hrs by CCK-8 method; assay type: toxicity, cell-based; conditions: dose 2-256 µM
[3] = Hemolytic activity in human Red blood cell assessed as hemolysis incubated for 1 hrs by microplate reader based analysis; assay type: toxicity; conditions: erythrocyte
[4] = tested on: HEK-293T; assay: Cytotoxicity against HEK293T cells at 2 to 256 uM measured after 24 hrs by CCK-8 method; assay type: toxicity, cell-based; conditions: human, dose 2-256 µM
[5] = tested on: Staphylococcus aureus; assay: Antimicrobial activity against multi-drug resistant Staphylococcus aureus assessed as reduction in bacterial growth by broth dilution method; assay type: functional
[6] = tested on: Escherichia coli; assay: Antimicrobial activity against multi-drug resistant Escherichia coli assessed as reduction in bacterial growth by broth dilution method; assay type: functional
[7] = tested on: Acinetobacter baumannii; assay: Antimicrobial activity against multi-drug resistant Acinetobacter baumannii assessed as reduction in bacterial growth by broth dilution method; assay type: functional
[8] = tested on: Klebsiella pneumoniae; assay: Antimicrobial activity against multi-drug resistant Klebsiella pneumoniae assessed as reduction in bacterial growth by broth dilution method; assay type: functional
[9] = tested on: Staphylococcus epidermidis; assay: Antimicrobial activity against multi-drug resistant Staphylococcus epidermidis assessed as reduction in bacterial growth by broth dilution method; assay type: functional
[10] = tested on: Staphylococcus aureus; assay: Antimicrobial activity against Staphylococcus aureus ATCC 25923 assessed as reduction in bacterial growth by broth dilution method; assay type: functional
[11] = tested on: Escherichia coli; assay: Antimicrobial activity against Escherichia coli ATCC 25922 assessed as reduction in bacterial growth by broth dilution method; assay type: functional
[12] = tested on: Enterococcus faecalis; assay: Antimicrobial activity against multi-drug resistant Enterococcus faecalis assessed as reduction in bacterial growth by broth dilution method; assay type: functional
[13] = tested on: Staphylococcus aureus; assay: Drug resistance, ratio of MIC for Staphylococcus aureus ATCC 25923 after 15 passages exposure to MIC for Staphylococcus aureus ATCC 25923 after first exposure; assay type: functional
[14] = tested on: Escherichia coli; assay: Drug resistance, ratio of MIC for Escherichia coli ATCC 25922 after 15 passages exposure to MIC for Escherichia coli ATCC 25922 after first exposure; assay type: functional

Row | Compound | Activity [1] | Activity [2] | HC10 [3] [µM] | Activity [4] | MIC [5] [µM] | MIC [6] [µM] | MIC [7] [µM] | MIC [8] [µM] | MIC [9] [µM] | MIC [10] [µM] | MIC [11] [µM] | MIC [12] [µM] | fold change (FC) [13] | fold change (FC) [14]
1 | CC(C)CCCCC(=O)N[C@@H](CCN)C(=O)N[C@H](C(=O)N[C@@H](CCN)C(=O)N[C@H]1CCNC(=O)[C@H]([C@@H](C)O)NC(=O)[C@H](CCN)NC(=O)[C@H](CCN)NC(=O)[C@H](CC(C)C)NC(=O)[C@@H](Cc2ccccc2)NC(=O)[C@H](CCN)NC1=O)[C@@H](C)O.CC[C@H](C)CCCCC(=O)N[C@@H](CCN)C(=O)N[C@H](C(=O)N[C@@H](CCN)C(=O)N[C@H]1CCNC(=O)[C@H]([C@@H](C)O)NC(=O)[C@H](CCN)NC(=O)[C@H](CCN)NC(=O)[C@H](CC(C)C)NC(=O)[C@@H](Cc2ccccc2)NC(=O)[C@H](CCN)NC1=O)[C@@H](C)O (X1-[Dab]T[Dab][Dab][Dab][dF]L[Dab][Dab]T; lactam 4-C) | Non-toxic | Non-toxic | > 256 | Non-toxic |  |  |  |  |  |  |  |  |  | 
2 | NCCCC[C@H](NC(=O)[C@H](Cc1ccccc1)NC(=O)[C@H](CCCCN)NC(=O)[C@H](Cc1ccccc1)NC(=O)[C@H](CCCCN)NC(=O)[C@@H]1CCCN1C(=O)[C@H](Cc1c[nH]c2ccccc12)NC(=O)[C@H](Cc1c[nH]c2ccccc12)NC(=O)[C@H](Cc1c[nH]c2ccccc12)NC(=O)[C@@H]1CCCN1C(=O)[C@H](CCCCN)NC(=O)[C@H](Cc1ccccc1)NC(=O)[C@H](CCCCN)NC(=O)[C@H](Cc1ccccc1)NC(=O)[C@@H](N)CCCCN)C(N)=O (H-KFKFKPWWWPKFKFK-NH2) | Toxic | Toxic | > 256 | Toxic | 4 (≈ 8.51 µg/mL) | 4 (≈ 8.51 µg/mL) | 4 (≈ 8.51 µg/mL) | 4 (≈ 8.51 µg/mL) | 4 (≈ 8.51 µg/mL) | 4 (≈ 8.51 µg/mL) | 2 (≈ 4.26 µg/mL) | 2 (≈ 4.26 µg/mL) |  | 
3 | CO[C@H]1/C=C/O[C@@]2(C)Oc3c(C)c(O)c4c(O)c(c(/C=N/N5CCN(C)CC5)c(O)c4c3C2=O)NC(=O)/C(C)=C\C=C\[C@H](C)[C@H](O)[C@@H](C)[C@@H](O)[C@@H](C)[C@H](OC(C)=O)[C@@H]1C [RIFAMPIN] |  |  |  |  | 0.5 (≈ 0.411 µg/mL) | 64 (≈ 52.7 µg/mL) | 16 (≈ 13.2 µg/mL) | 16 (≈ 13.2 µg/mL) | 2 (≈ 1.65 µg/mL) | 0.5 (≈ 0.411 µg/mL) | 8 (≈ 6.58 µg/mL) | 4 (≈ 3.29 µg/mL) | 64 | 8
4 | CC(C)[C@H](NC(=O)[C@H](CCCCN)NC(=O)[C@@H](NC(=O)[C@H](CCCCN)NC(=O)[C@H](Cc1ccccc1)NC(=O)[C@@H]1CCCN1C(=O)[C@H](Cc1c[nH]c2ccccc12)NC(=O)[C@H](Cc1c[nH]c2ccccc12)NC(=O)[C@H](Cc1c[nH]c2ccccc12)NC(=O)[C@@H]1CCCN1C(=O)[C@H](Cc1ccccc1)NC(=O)[C@H](CCCCN)NC(=O)[C@@H](NC(=O)[C@H](CCCCN)NC(=O)[C@@H](NC(=O)[C@@H](N)CCCCN)C(C)C)C(C)C)C(C)C)C(=O)N[C@@H](CCCCN)C(N)=O (H-KVKVKFPWWWPFKVKVK-NH2) | Toxic | Toxic | 243.97 | Toxic | 8 (≈ 17.8 µg/mL) | 4 (≈ 8.92 µg/mL) | 8 (≈ 17.8 µg/mL) | 16 (≈ 35.7 µg/mL) | 4 (≈ 8.92 µg/mL) | 8 (≈ 17.8 µg/mL) | 4 (≈ 8.92 µg/mL) | 4 (≈ 8.92 µg/mL) |  | 
5 | CC1(C)S[C@@H]2[C@H](NC(=O)[C@H](N)c3ccc(O)cc3)C(=O)N2[C@H]1C(=O)O [AMOXICILLIN] |  |  |  |  | 64 (≈ 23.4 µg/mL) | > 256 | 128 (≈ 46.8 µg/mL) | > 256 | 128 (≈ 46.8 µg/mL) | 0.25 (≈ 0.0914 µg/mL) | 4 (≈ 1.46 µg/mL) | 64 (≈ 23.4 µg/mL) | 64 | 8
6 | CC[C@H](C)[C@H](NC(=O)[C@H](CCCCN)NC(=O)[C@@H](NC(=O)[C@H](CCCCN)NC(=O)[C@H](Cc1ccccc1)NC(=O)[C@@H]1CCCN1C(=O)[C@H](Cc1c[nH]c2ccccc12)NC(=O)[C@H](Cc1c[nH]c2ccccc12)NC(=O)[C@H](Cc1c[nH]c2ccccc12)NC(=O)[C@@H]1CCCN1C(=O)[C@H](Cc1ccccc1)NC(=O)[C@H](CCCCN)NC(=O)[C@@H](NC(=O)[C@H](CCCCN)NC(=O)[C@@H](NC(=O)[C@@H](N)CCCCN)[C@@H](C)CC)[C@@H](C)CC)[C@@H](C)CC)C(=O)N[C@@H](CCCCN)C(N)=O (H-KIKIKFPWWWPFKIKIK-NH2) |  |  | 29.44 |  | 4 (≈ 9.14 µg/mL) | 8 (≈ 18.3 µg/mL) | 8 (≈ 18.3 µg/mL) | 32 (≈ 73.2 µg/mL) | 8 (≈ 18.3 µg/mL) | 4 (≈ 9.14 µg/mL) | 16 (≈ 36.6 µg/mL) | 4 (≈ 9.14 µg/mL) |  | 
